Laboratory results: PubChem BioAssay (NCI)
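Dose response: 5 concentrations. Exposure: 48 h. Format: 96-well plates. Endpoint: linear interpolation; highest concentration if not reached. Definition used: TGI = concentration required for complete inhibition of growth.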

Assays:
Experiment in all cases: NCI-60 cell line screen, 48 h
786-0 renal = system: 786-0 renal
A498 renal = system: A498 renal
A549 NSCLC = system: A549 NSCLC
ACHN renal = system: ACHN renal
CAKI-1 renal = system: CAKI-1 renal
CCRF-CEM leukemia = system: CCRF-CEM leukemia
COLO 205 colon = system: COLO 205 colon
DLD-1 colon = system: DLD-1 colon
DMS 273 small cell lung = system: DMS 273 small cell lung
EKVX NSCLC = system: EKVX NSCLC
HCC-2998 colon = system: HCC-2998 colon
HCT-15 colon = system: HCT-15 colon
HL-60(TB) leukemia = system: HL-60(TB) leukemia
HOP-18 NSCLC = system: HOP-18 NSCLC
HOP-92 NSCLC = system: HOP-92 NSCLC
HT29 colon = system: HT29 colon
IGROV1 ovarian = system: IGROV1 ovarian
K-562 leukemia = system: K-562 leukemia
KM12 colon = system: KM12 colon
LOX IMVI melanoma = system: LOX IMVI melanoma
LXFL 529 NSCLC = system: LXFL 529 NSCLC
M14 melanoma = system: M14 melanoma
M19-MEL melanoma = system: M19-MEL melanoma
MALME-3M melanoma = system: MALME-3M melanoma
MOLT-4 leukemia = system: MOLT-4 leukemia
NCI-H23 lung = system: NCI-H23 lung
NCI-H460 lung = system: NCI-H460 lung
NCI-H522 lung = system: NCI-H522 lung
OVCAR-3 ovarian = system: OVCAR-3 ovarian
OVCAR-4 ovarian = system: OVCAR-4 ovarian
OVCAR-5 ovarian = system: OVCAR-5 ovarian
OVCAR-8 ovarian = system: OVCAR-8 ovarian
RPMI-8226 leukemia = system: RPMI-8226 leukemia
RXF 393 renal = system: RXF 393 renal
SF-268 CNS = system: SF-268 CNS
SF-295 CNS = system: SF-295 CNS
SF-539 CNS = system: SF-539 CNS
SK-MEL-2 melanoma = system: SK-MEL-2 melanoma
SK-MEL-28 melanoma = system: SK-MEL-28 melanoma
SK-MEL-5 melanoma = system: SK-MEL-5 melanoma
SK-OV-3 ovarian = system: SK-OV-3 ovarian
SN12C renal = system: SN12C renal
SNB-19 CNS = system: SNB-19 CNS
SNB-75 CNS = system: SNB-75 CNS
SW-620 colon = system: SW-620 colon
TK-10 renal = system: TK-10 renal
U251 CNS = system: U251 CNS
UACC-257 melanoma = system: UACC-257 melanoma
UACC-62 melanoma = system: UACC-62 melanoma
UO-31 renal = system: UO-31 renal
XF 498 CNS = system: XF 498 CNS
DMS 114 small cell lung = system: DMS 114 small cell lung
HCT-116 colon = system: HCT-116 colon
HOP-62 NSCLC = system: HOP-62 NSCLC
KM20L2 colon = system: KM20L2 colon
NCI-H226 lung = system: NCI-H226 lung
RXF-631 renal = system: RXF-631 renal
SNB-78 CNS = system: SNB-78 CNS
SR leukemia = system: SR leukemia

## CCCCCCCCCCSC(=O)NC
786-0 renal
  TGI: > 100 µM
A498 renal
  TGI: > 100 µM
A549 NSCLC
  TGI: > 100 µM
ACHN renal
  TGI: > 100 µM
CAKI-1 renal
  TGI: > 100 µM
CCRF-CEM leukemia
  TGI: 48.3 µM
COLO 205 colon
  TGI: > 100 µM
DLD-1 colon
  TGI: > 100 µM
DMS 273 small cell lung
  TGI: > 100 µM
EKVX NSCLC
  TGI: 71.4 µM
HCC-2998 colon
  TGI: > 100 µM
HCT-15 colon
  TGI: 54.8 µM
HL-60(TB) leukemia
  TGI: 39.9 µM
HOP-18 NSCLC
  TGI: > 100 µM
HOP-92 NSCLC
  TGI: 57.8 µM
HT29 colon
  TGI: 77 µM
IGROV1 ovarian
  TGI: > 100 µM
K-562 leukemia
  TGI: 67.7 µM
KM12 colon
  TGI: > 100 µM
LOX IMVI melanoma
  TGI: > 100 µM
LXFL 529 NSCLC
  TGI: > 100 µM
M14 melanoma
  TGI: 50 µM
M19-MEL melanoma
  TGI: > 100 µM
MALME-3M melanoma
  TGI: > 100 µM
MOLT-4 leukemia
  TGI: 46.5 µM
NCI-H23 lung
  TGI: 99.8 µM
NCI-H460 lung
  TGI: > 100 µM
NCI-H522 lung
  TGI: 54.6 µM
OVCAR-3 ovarian
  TGI: > 100 µM
OVCAR-4 ovarian
  TGI: > 100 µM
OVCAR-5 ovarian
  TGI: > 100 µM
OVCAR-8 ovarian
  TGI: 87.7 µM
RPMI-8226 leukemia
  TGI: 48.8 µM
RXF 393 renal
  TGI: 44.1 µM
SF-268 CNS
  TGI: > 100 µM
SF-295 CNS
  TGI: > 100 µM
SF-539 CNS
  TGI: > 100 µM
SK-MEL-2 melanoma
  TGI: 69 µM
SK-MEL-28 melanoma
  TGI: 68.4 µM
SK-MEL-5 melanoma
  TGI: 45.6 µM
SK-OV-3 ovarian
  TGI: > 100 µM
SN12C renal
  TGI: 74.4 µM
SNB-19 CNS
  TGI: > 100 µM
SNB-75 CNS
  TGI: > 100 µM
SW-620 colon
  TGI: > 100 µM
TK-10 renal
  TGI: > 100 µM
U251 CNS
  TGI: 68.4 µM
UACC-257 melanoma
  TGI: 85 µM
UACC-62 melanoma
  TGI: > 100 µM
UO-31 renal
  TGI: > 100 µM
XF 498 CNS
  TGI: 54 µM

## CC1=C(C(=O)NCc2ccccc2)C(c2ccccc2C)C(C(=O)NCc2ccccc2)=C(C)N1
786-0 renal
  TGI: 67 µM
A498 renal
  TGI: > 100 µM
A549 NSCLC
  TGI: > 100 µM
ACHN renal
  TGI: 38.4 µM
CAKI-1 renal
  TGI: > 100 µM
CCRF-CEM leukemia
  TGI: > 100 µM
COLO 205 colon
  TGI: > 100 µM
DLD-1 colon
  TGI: 51.3 µM
DMS 114 small cell lung
  TGI: > 67.7 µM
DMS 273 small cell lung
  TGI: > 69.9 µM
EKVX NSCLC
  TGI: > 100 µM
HCC-2998 colon
  TGI: > 60 µM
HCT-116 colon
  TGI: 37.6 µM
HCT-15 colon
  TGI: 36.6 µM
HL-60(TB) leukemia
  TGI: 59.3 µM
HOP-18 NSCLC
  TGI: > 91.2 µM
HOP-62 NSCLC
  TGI: 69.7 µM
HOP-92 NSCLC
  TGI: > 86.8 µM
HT29 colon
  TGI: 73 µM
IGROV1 ovarian
  TGI: > 72.3 µM
K-562 leukemia
  TGI: > 100 µM
KM12 colon
  TGI: 58.8 µM
KM20L2 colon
  TGI: > 75.5 µM
LOX IMVI melanoma
  TGI: 35.7 µM
LXFL 529 NSCLC
  TGI: > 95.9 µM
M14 melanoma
  TGI: 42.8 µM
M19-MEL melanoma
  TGI: > 75.8 µM
MALME-3M melanoma
  TGI: > 100 µM
MOLT-4 leukemia
  TGI: > 100 µM
NCI-H226 lung
  TGI: > 84.6 µM
NCI-H23 lung
  TGI: > 93.6 µM
NCI-H460 lung
  TGI: 45.9 µM
NCI-H522 lung
  TGI: 66.2 µM
OVCAR-3 ovarian
  TGI: 45.5 µM
OVCAR-4 ovarian
  TGI: > 63.7 µM
OVCAR-5 ovarian
  TGI: > 95.5 µM
OVCAR-8 ovarian
  TGI: 32.8 µM
RPMI-8226 leukemia
  TGI: > 100 µM
RXF 393 renal
  TGI: 43.7 µM
RXF-631 renal
  TGI: > 100 µM
SF-268 CNS
  TGI: 57.6 µM
SF-295 CNS
  TGI: > 85.5 µM
SF-539 CNS
  TGI: 48.8 µM
SK-MEL-2 melanoma
  TGI: 38.5 µM
SK-MEL-28 melanoma
  TGI: > 67.3 µM
SK-MEL-5 melanoma
  TGI: > 100 µM
SK-OV-3 ovarian
  TGI: > 100 µM
SN12C renal
  TGI: > 63 µM
SNB-19 CNS
  TGI: > 100 µM
SNB-75 CNS
  TGI: > 94.1 µM
SNB-78 CNS
  TGI: > 100 µM
SR leukemia
  TGI: 81.1 µM
SW-620 colon
  TGI: > 100 µM
TK-10 renal
  TGI: 99.6 µM
U251 CNS
  TGI: 68.3 µM
UACC-257 melanoma
  TGI: > 76.4 µM
UACC-62 melanoma
  TGI: 38.8 µM
UO-31 renal
  TGI: > 93.3 µM

## CCOC(=O)C(NO)C(Sc1ccccc1)c1ccc(OC)cc1 (centres undefined)
786-0 renal
  TGI: > 100 µM
A549 NSCLC
  TGI: > 100 µM
ACHN renal
  TGI: > 100 µM
COLO 205 colon
  TGI: > 100 µM
DLD-1 colon
  TGI: > 100 µM
DMS 114 small cell lung
  TGI: > 100 µM
DMS 273 small cell lung
  TGI: > 100 µM
EKVX NSCLC
  TGI: > 100 µM
HCC-2998 colon
  TGI: > 100 µM
HCT-116 colon
  TGI: > 100 µM
HCT-15 colon
  TGI: > 100 µM
HOP-18 NSCLC
  TGI: > 100 µM
HOP-62 NSCLC
  TGI: > 100 µM
HOP-92 NSCLC
  TGI: > 100 µM
HT29 colon
  TGI: > 100 µM
IGROV1 ovarian
  TGI: > 100 µM
KM12 colon
  TGI: > 100 µM
KM20L2 colon
  TGI: > 100 µM
LOX IMVI melanoma
  TGI: > 100 µM
LXFL 529 NSCLC
  TGI: > 100 µM
M14 melanoma
  TGI: > 100 µM
M19-MEL melanoma
  TGI: > 100 µM
MALME-3M melanoma
  TGI: > 100 µM
MOLT-4 leukemia
  TGI: > 100 µM
NCI-H226 lung
  TGI: > 100 µM
NCI-H23 lung
  TGI: > 100 µM
NCI-H460 lung
  TGI: > 100 µM
NCI-H522 lung
  TGI: > 100 µM
OVCAR-3 ovarian
  TGI: > 100 µM
OVCAR-5 ovarian
  TGI: > 100 µM
OVCAR-8 ovarian
  TGI: > 100 µM
RPMI-8226 leukemia
  TGI: > 100 µM
RXF 393 renal
  TGI: 52.3 µM
SF-268 CNS
  TGI: > 100 µM
SF-295 CNS
  TGI: > 100 µM
SF-539 CNS
  TGI: > 100 µM
SK-MEL-2 melanoma
  TGI: > 100 µM
SK-MEL-28 melanoma
  TGI: > 100 µM
SK-MEL-5 melanoma
  TGI: > 100 µM
SK-OV-3 ovarian
  TGI: > 100 µM
SN12C renal
  TGI: > 100 µM
SNB-19 CNS
  TGI: > 100 µM
SNB-75 CNS
  TGI: > 100 µM
SNB-78 CNS
  TGI: > 100 µM
SR leukemia
  TGI: > 100 µM
SW-620 colon
  TGI: > 100 µM
TK-10 renal
  TGI: > 100 µM
U251 CNS
  TGI: > 100 µM
UACC-257 melanoma
  TGI: > 100 µM
UACC-62 melanoma
  TGI: > 100 µM
UO-31 renal
  TGI: > 100 µM
XF 498 CNS
  TGI: > 100 µM

## Clc1ccc(OCc2nnc3n2N=C(c2ccc(Br)cc2)CS3)cc1
786-0 renal
  TGI: > 100 µM
A498 renal
  TGI: 25.7 µM
A549 NSCLC
  TGI: > 100 µM
ACHN renal
  TGI: > 100 µM
CCRF-CEM leukemia
  TGI: > 100 µM
DMS 114 small cell lung
  TGI: 54 µM
DMS 273 small cell lung
  TGI: > 100 µM
HCC-2998 colon
  TGI: > 100 µM
HCT-116 colon
  TGI: > 100 µM
HCT-15 colon
  TGI: > 100 µM
HL-60(TB) leukemia
  TGI: > 100 µM
HOP-92 NSCLC
  TGI: 41 µM
HT29 colon
  TGI: > 100 µM
K-562 leukemia
  TGI: > 100 µM
KM12 colon
  TGI: > 100 µM
LOX IMVI melanoma
  TGI: 46 µM
LXFL 529 NSCLC
  TGI: 70.3 µM
M19-MEL melanoma
  TGI: > 100 µM
MALME-3M melanoma
  TGI: > 100 µM
MOLT-4 leukemia
  TGI: > 100 µM
NCI-H226 lung
  TGI: > 100 µM
NCI-H23 lung
  TGI: > 100 µM
NCI-H460 lung
  TGI: 82 µM
OVCAR-5 ovarian
  TGI: > 100 µM
OVCAR-8 ovarian
  TGI: > 100 µM
RPMI-8226 leukemia
  TGI: > 100 µM
RXF 393 renal
  TGI: 61.8 µM
SF-295 CNS
  TGI: 37.7 µM
SF-539 CNS
  TGI: 24.5 µM
SK-MEL-2 melanoma
  TGI: 66.9 µM
SK-MEL-28 melanoma
  TGI: > 100 µM
SK-OV-3 ovarian
  TGI: 34.6 µM
SN12C renal
  TGI: > 100 µM
SNB-19 CNS
  TGI: 75.1 µM
SNB-78 CNS
  TGI: 81.1 µM
SR leukemia
  TGI: > 100 µM
SW-620 colon
  TGI: > 100 µM
TK-10 renal
  TGI: 35.6 µM
U251 CNS
  TGI: > 100 µM
UACC-257 melanoma
  TGI: 83.3 µM
UACC-62 melanoma
  TGI: > 100 µM
UO-31 renal
  TGI: 19.6 µM
XF 498 CNS
  TGI: 21.4 µM
